Source: patent US8435980B2 (AbbVie Inc., priority 2009, dated 2013)

The compounds below were run against T1, Cdc7 (BEV coexpressed huCDC7/DBF4) (Homo sapiens, UniProt O00311) (assay: Cdc7 enzyme inhibition assay ([33P]ATP, biotinylated peptide substrate, FlashPlate)). Conditions: not given.
T1 construct: made in house; host or cells: BEV (baculovirus expression vector) co-expression; insect cells are implied but no cell line is named
Format: biochemical
Experimental: Cdc7 (BEV coexpressed huCDC7/DBF4) is prepared internally. Cdc7 assays are conducted as follows with final concentrations as listed. […] Reactions are quenched after 1 hr by the addition of 90 μL stop buffer (50 mM EDTA, 2M NaCl). […] (Ki) for exemplary compounds.

T1 sequence (O00311 whole entry): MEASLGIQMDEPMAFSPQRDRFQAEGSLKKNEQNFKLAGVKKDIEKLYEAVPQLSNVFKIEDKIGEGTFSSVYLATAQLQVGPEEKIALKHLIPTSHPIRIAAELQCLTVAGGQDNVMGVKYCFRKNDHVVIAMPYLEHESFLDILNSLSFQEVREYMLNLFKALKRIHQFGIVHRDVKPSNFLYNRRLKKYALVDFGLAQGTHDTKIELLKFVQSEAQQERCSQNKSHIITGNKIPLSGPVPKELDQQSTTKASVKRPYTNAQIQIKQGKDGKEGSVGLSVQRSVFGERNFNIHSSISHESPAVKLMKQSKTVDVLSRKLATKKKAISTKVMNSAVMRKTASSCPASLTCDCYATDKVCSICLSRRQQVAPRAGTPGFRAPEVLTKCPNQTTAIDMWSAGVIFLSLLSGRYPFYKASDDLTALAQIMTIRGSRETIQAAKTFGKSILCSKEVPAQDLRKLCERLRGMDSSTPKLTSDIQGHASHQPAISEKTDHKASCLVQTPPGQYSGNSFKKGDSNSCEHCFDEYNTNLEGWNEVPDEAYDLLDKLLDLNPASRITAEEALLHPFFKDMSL
T1 sequence (Q9UBU7 whole entry partner): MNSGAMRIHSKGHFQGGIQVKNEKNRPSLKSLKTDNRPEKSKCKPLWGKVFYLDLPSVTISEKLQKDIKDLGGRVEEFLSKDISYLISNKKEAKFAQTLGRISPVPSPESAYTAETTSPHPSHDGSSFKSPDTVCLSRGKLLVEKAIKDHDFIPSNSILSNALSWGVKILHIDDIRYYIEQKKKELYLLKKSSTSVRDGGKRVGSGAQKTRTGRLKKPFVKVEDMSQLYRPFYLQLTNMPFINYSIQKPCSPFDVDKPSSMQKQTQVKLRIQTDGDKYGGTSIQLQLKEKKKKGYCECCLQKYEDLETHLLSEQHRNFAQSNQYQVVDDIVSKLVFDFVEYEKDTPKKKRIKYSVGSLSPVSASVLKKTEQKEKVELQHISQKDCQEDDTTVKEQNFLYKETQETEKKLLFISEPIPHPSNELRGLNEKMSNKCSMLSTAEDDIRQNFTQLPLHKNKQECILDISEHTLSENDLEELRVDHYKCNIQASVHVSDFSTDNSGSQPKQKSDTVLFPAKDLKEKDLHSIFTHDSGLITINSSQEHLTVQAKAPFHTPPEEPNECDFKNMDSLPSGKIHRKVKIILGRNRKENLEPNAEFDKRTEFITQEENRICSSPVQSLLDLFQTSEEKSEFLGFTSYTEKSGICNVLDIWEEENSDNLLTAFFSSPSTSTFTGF

Ki [nM] | SMILES
10 to 100 | CC(O)CNc1cc(-c2c[nH]c3ncccc23)cc(Cl)n1 (stereo not shown) [Example 39, 1-{[6-chloro-4-(1H-pyrrolo[2,3-b]pyridin-3-yl)pyridin-2-yl]amino}propan-2-ol]
10 to 100 | CC(C)(CO)CNc1cc(-c2c[nH]c3ncccc23)cc(Cl)n1 [Example 40, 3-{[6-chloro-4-(1H-pyrrolo[2,3-b]pyridin-3-yl)pyridin-2-yl]amino}-2,2-dimethylpropan-1-ol]
10 to 100 | OCCOCCNc1cc(-c2c[nH]c3ncccc23)cc(Cl)n1 [Example 41, 2-(2-{[6-chloro-4-(1H-pyrrolo[2,3-b]pyridin-3-yl)pyridin-2-yl]amino}ethoxy)ethanol]
< 10 | N[C@H]1CC[C@H](Nc2nc(Cl)cc(-c3c[nH]c4ncccc34)n2)CC1 [Example 42, trans-N-[4-chloro-6-(1H-pyrrolo[2,3-b]pyridin-3-yl)pyrimidin-2-yl]cyclohexane-1,4-diamine]
< 10 | O[C@H]1CC[C@H](Nc2nc(Cl)cc(-c3c[nH]c4ncccc34)n2)CC1 [Example 44, Trans-4-{[4-chloro-6-(1H-pyrrolo[2,3-b]pyridin-3-yl)pyrimidin-2-yl]amino}cyclohexanol]
10 to 100 | Clc1cc(-c2c[nH]c3ncccc23)nc(NCc2ccccc2)n1 [Example 46, N-benzyl-4-chloro-6-(1H-pyrrolo[2,3-b]pyridin-3-yl)pyrimidin-2-amine]
10 to 100 | OCC(Cc1ccccc1)Nc1nc(Cl)cc(-c2c[nH]c3ncccc23)n1 (stereo not shown) [Example 47, 2-{[4-chloro-6-(1H-pyrrolo[2,3-b]pyridin-3-yl)pyrimidin-2-yl]amino}-3-phenylpropan-1-ol]
10 to 100 | COC[C@H](Cc1ccccc1)Nc1nc(Cl)cc(-c2c[nH]c3ncccc23)n1 [Example 48, (S)-4-chloro-N-(1-methoxy-3-phenylpropan-2-yl)-6-(1H-pyrrolo[2,3-b]pyridine-3-yl)pyrimidin-2-amine]
< 10 | Clc1cc(-c2c[nH]c3ncccc23)nc(NC2CCCCC2)n1 [Example 49, 4-chloro-N-cyclohexyl-6-(1H-pyrrolo[2,3-b]pyridin-3-yl)pyrimidin-2-amine]

Same assay, conditions: Table 3; enzyme inhibition data (Ki)

Ki [nM] | SMILES
< 10 | CN(C)C1CCCC(Nc2cc(-c3c[nH]c4ncccc34)cc(Cl)n2)C1 (stereo not shown) [Example 59, N′-[6-chloro-4-(1H-pyrrolo[2,3-b]pyridin-3-yl)pyridin-2-yl]-N,N-dimethylcyclohexane-1,3-diamine]
< 10 | O=C(NC1CCCC1)NC1CCC(Nc2cc(-c3c[nH]c4ncccc34)cc(Cl)n2)CC1 (stereo not shown) [Example 60, 1-(4-{[6-chloro-4-(1H-pyrrolo[2,3-b]pyridin-3-yl)pyridin-2-yl]amino}cyclohexyl)-3-cyclopentylurea]
< 10 | O=S(=O)(N[C@H]1CC[C@H](Nc2cc(-c3c[nH]c4ncccc34)cc(Cl)n2)CC1)C1CC1 [Example 61, N-(trans-4-{[6-chloro-4-(1H-pyrrolo[2,3-b]pyridin-3-yl)pyridin-2-yl]amino}cyclohexyl)cyclopropanesulfonamide]
< 10 | CCCNC(=O)NC1CCC(Nc2cc(-c3c[nH]c4ncccc34)cc(Cl)n2)CC1 (stereo not shown) [Example 62, 1-(4-{[6-chloro-4-(1H-pyrrolo[2,3-b]pyridin-3-yl)pyridin-2-yl]amino}cyclohexyl)-3-propylurea]
< 10 | O=C(N[C@H]1CC[C@H](Nc2cc(-c3c[nH]c4ncccc34)cc(Cl)n2)CC1)C1CC1 [Example 63, N-(trans-4-{[6-chloro-4-(1H-pyrrolo[2,3-b]pyridin-3-yl)pyridin-2-yl]amino}cyclohexyl)cyclopropanecarboxamide]
< 10 | CC(C)C(=O)NC1CCC(Nc2cc(-c3c[nH]c4ncccc34)cc(Cl)n2)CC1 (stereo not shown) [Example 64, N-(4-{[6-chloro-4-(1H-pyrrolo[2,3-b]pyridin-3-yl)pyridin-2-yl]amino}cyclohexyl)-2-methylpropanamide]
< 10 | O=C(NC1CCC(Nc2cc(-c3c[nH]c4ncccc34)cc(Cl)n2)CC1)c1ccccc1 (stereo not shown) [Example 65, N-(4-{[6-chloro-4-(1H-pyrrolo[2,3-b]pyridin-3-yl)pyridin-2-yl]amino}cyclohexyl)benzamide]
< 10 | O=C(Nc1ccccc1)NC1CCC(Nc2cc(-c3c[nH]c4ncccc34)cc(Cl)n2)CC1 (stereo not shown) [Example 66, 1-(4-{[6-chloro-4-(1H-pyrrolo[2,3-b]pyridin-3-yl)pyridin-2-yl]amino}cyclohexyl)-3-phenylurea]
< 10 | Clc1cc(-c2c[nH]c3ncccc23)cc(NC2CCCC(NCc3cccnc3)C2)n1 (stereo not shown) [Example 67, N-[6-chloro-4-(1H-pyrrolo[2,3-b]pyridin-3-yl)pyridin-2-yl]-N′-(pyridin-3-ylmethyl)cyclohexane-1,3-diamine]
< 10 | Clc1cc(-c2c[nH]c3ncccc23)cc(NC2CCCC(NC3CCC3)C2)n1 (stereo not shown) [Example 68, N-[6-chloro-4-(1H-pyrrolo[2,3-b]pyridin-3-yl)pyridin-2-yl]-1-N′-cyclobutylcyclohexane-1,3-diamine]
< 10 | O=C(NC1CCCC(Nc2cc(-c3c[nH]c4ncccc34)cc(Cl)n2)C1)C1CC1 (stereo not shown) [Example 69, N-(3-{[6-chloro-4-(1H-pyrrolo[2,3-b]pyridin-3-yl)pyridin-2-yl]amino}cyclohexyl)cyclopropanecarboxamide]
< 10 | CCCN1CCC(C(=O)NC2CCCC(Nc3cc(-c4c[nH]c5ncccc45)cc(Cl)n3)C2)CC1 (stereo not shown) [Example 70, N-(3-{[6-chloro-4-(1H-pyrrolo[2,3-b]pyridin-3-yl)pyridin-2-yl]amino}cyclohexyl)-1-propylpiperidine-4-carboxamide]
< 10 | O=C(NC1CCCC(Nc2cc(-c3c[nH]c4ncccc34)cc(Cl)n2)C1)c1cc[nH]n1 (stereo not shown) [Example 71, N-(3-{[6-chloro-4-(1H-pyrrolo[2,3-b]pyridin-3-yl)pyridin-2-yl]amino}cyclohexyl)-1H-pyrazole-3-carboxamide]
< 10 | Clc1cc(-c2c[nH]c3ncccc23)cc(NC2CCCC(NCC3CCCNC3)C2)n1 (stereo not shown) [Example 72, N-[6-chloro-4-(1H-pyrrolo[2,3-b]pyridin-3-yl)pyridin-2-yl]-N′-(piperidin-3-ylmethyl)cyclohexane-1,3-diamine]
< 10 | O=C(CNC(=O)c1ccccc1)NC1CCCC(Nc2cc(-c3c[nH]c4ncccc34)cc(Cl)n2)C1 (stereo not shown) [Example 73, N-{2-[(3-{[6-chloro-4-(1H-pyrrolo[2,3-b]pyridin-3-yl)pyridin-2-yl]-amino}cyclohexyl)amino]-2-oxoethyl}benzamide]
< 10 | O=S(=O)(NC1CCCC(Nc2cc(-c3c[nH]c4ncccc34)cc(Cl)n2)C1)C1CC1 (stereo not shown) [Example 76, N-(3-{[6-chloro-4-(1H-pyrrolo[2,3-b]pyridin-3-yl)pyridin-2-yl]amino}cyclohexyl)cyclopropanesulfonamide]
< 10 | CCCS(=O)(=O)NC1CCCC(Nc2cc(-c3c[nH]c4ncccc34)cc(Cl)n2)C1 (stereo not shown) [Example 77, N-(3-{[6-chloro-4-(1H-pyrrolo[2,3-b]pyridin-3-yl)pyridin-2-yl]amino}cyclohexyl)propane-1-sulfonamide]
< 10 | Cc1ccc(S(=O)(=O)NC2CCCC(Nc3cc(-c4c[nH]c5ncccc45)cc(Cl)n3)C2)cc1 (stereo not shown) [Example 78, N-(3-{[6-chloro-4-(1H-pyrrolo[2,3-b]pyridin-3-yl)pyridin-2-yl]amino}cyclohexyl)-4-methylbenzenesulfonamide]
< 10 | CCNC(=O)NC1CCCC(Nc2cc(-c3c[nH]c4ncccc34)cc(Cl)n2)C1 (stereo not shown) [Example 79, 1-(3-{[6-chloro-4-(1H-pyrrolo[2,3-b]pyridin-3-yl)pyridin-2-yl]amino}cyclohexyl)-3-ethylurea]
< 10 | O=C(NC1CCCC1)NC1CCCC(Nc2cc(-c3c[nH]c4ncccc34)cc(Cl)n2)C1 (stereo not shown) [Example 80, 1-(3-{[6-chloro-4-(1H-pyrrolo[2,3-b]pyridin-3-yl)pyridin-2-yl]amino}cyclohexyl)-3-cyclopentylurea]

More lines, now with the values behind:

SMILES | Ki [nM]
CS(=O)(=O)N1CCC(Nc2cc(-c3c[nH]c4ncccc34)cc(Cl)n2)CC1 [Example 51, 6-chloro-N-[1-(methylsulfonyl)piperidin-4-yl]-4-(1H-pyrrolo[2,3-b]pyridin 3-yl)pyridin-2-amine] | < 10
O=S(=O)(NC1CCC(Nc2cc(-c3c[nH]c4ncccc34)cc(Cl)n2)CC1)c1ccccc1 (stereo not shown) [Example 52, N-(4-{[6-chloro-4-(1H-pyrrolo[2,3-b]pyridin-3-yl)pyridin-2-yl]amino}cyclohexyl)benzenesulfonamide] | < 10
O=S(=O)(Cc1ccccc1)NC1CCC(Nc2cc(-c3c[nH]c4ncccc34)cc(Cl)n2)CC1 (stereo not shown) [Example 53, N-(4-{[6-chloro-4-(1H-pyrrolo[2,3-b]pyridin-3-yl)pyridin-2-yl]amino}cyclohexyl)-1-phenylmethanesulfonamide] | < 10
O=S(=O)(NC1CCC(Nc2cc(-c3c[nH]c4ncccc34)cc(Cl)n2)CC1)c1cccnc1 (stereo not shown) [Example 54, N-(4-{[6-chloro-4-(1H-pyrrolo[2,3-b]pyridin-3-yl)pyridin-2-yl]amino}cyclohexyl)pyridine-3-sulfonamide] | < 10
CCCS(=O)(=O)NC1CCC(Nc2cc(-c3c[nH]c4ncccc34)cc(Cl)n2)CC1 (stereo not shown) [Example 55, N-(4-{[6-chloro-4-(1H-pyrrolo[2,3-b]pyridin-3-yl)pyridin-2-yl]amino}cyclohexyl)propane-1-sulfonamide] | < 10
Clc1cc(-c2c[nH]c3ncccc23)cc(NCCN2CCOCC2)n1 [Example 56, 6-chloro-N-[2-(morpholin-4-yl)ethyl]-4-(1H-pyrrolo[2,3-b]pyridin-3-yl)pyridin-2-amine] | < 10
Oc1cccc(CCNc2cc(-c3c[nH]c4ncccc34)cc(Cl)n2)c1 [Example 57, 3-(2-{[6-chloro-4-(1H-pyrrolo[2,3-b]pyridin-3-yl)pyridin-2-yl]amino}ethyl)phenol] | < 10
CC(C)CNC1CCCC(Nc2cc(-c3c[nH]c4ncccc34)cc(Cl)n2)C1 (stereo not shown) [Example 58, N-[6-chloro-4-(1H-pyrrolo[2,3-b]pyridin-3-yl)pyridin-2-yl]-N′-(2-methylpropyl)cyclohexane-1,3-diamine] | < 10
